Measured values as given in PMC10810011 (Expert opinion on drug delivery, 2023).

Experiments:
A1 adenosine = A1 adenosine (Homo sapiens, UniProt P30542); assay: InVEST radioligand filter binding, A1 adenosine; conditions: M13 20 μM, 100 = no effect
alpha2A adrenergic = target: T1, alpha2A adrenergic (Homo sapiens, UniProt P08913); assay: InVEST radioligand filter binding, alpha2A adrenergic; conditions: M13 20 μM, 100 = no effect
T1 sequence (P08913 1-465): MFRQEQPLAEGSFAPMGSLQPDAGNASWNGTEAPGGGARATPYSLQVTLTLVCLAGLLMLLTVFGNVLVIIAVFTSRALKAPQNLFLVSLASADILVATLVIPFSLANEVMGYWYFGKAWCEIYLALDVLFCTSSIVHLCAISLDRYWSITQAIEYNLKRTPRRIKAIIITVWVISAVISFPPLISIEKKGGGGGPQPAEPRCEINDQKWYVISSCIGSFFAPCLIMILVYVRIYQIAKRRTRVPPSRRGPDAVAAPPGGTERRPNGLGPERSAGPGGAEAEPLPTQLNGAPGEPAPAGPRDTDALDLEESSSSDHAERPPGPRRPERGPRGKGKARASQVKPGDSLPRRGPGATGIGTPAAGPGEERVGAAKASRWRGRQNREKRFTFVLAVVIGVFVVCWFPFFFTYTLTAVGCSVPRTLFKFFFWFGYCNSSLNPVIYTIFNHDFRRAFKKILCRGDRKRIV

beta1 adrenergic = beta1 adrenergic (Homo sapiens, UniProt P08588); assay: InVEST radioligand filter binding, beta1 adrenergic; conditions: M13 20 μM, 100 = no effect
D2S dopamine = D2S dopamine (Homo sapiens, UniProt P14416); assay: InVEST radioligand filter binding, D2S dopamine; conditions: M13 20 μM, 100 = no effect
Opioid kappa = Opioid kappa (Homo sapiens, UniProt P41145); assay: InVEST radioligand filter binding, Opioid kappa; conditions: M13 20 μM, 100 = no effect
5-HT2B = 5-HT2B (Homo sapiens, UniProt P41595); assay: InVEST radioligand filter binding, 5-HT2B; conditions: M13 20 μM, 100 = no effect
PDE3A = PDE3A (Homo sapiens, UniProt Q14432); assay: InVEST enzymatic activity, PDE3A; type: biochemical; conditions: M13 20 μM, 100 = no effect
PDE4A = PDE4A (Homo sapiens, UniProt P27815); assay: InVEST enzymatic activity, PDE4A; type: biochemical; conditions: M13 20 μM, 100 = no effect
CD-1 mice = assay: Single-dose maximum tolerated dose; type: in vivo, mouse
HCT-116 cells = assay: MTT cytotoxicity, 2D HCT-116; type: cell-based, human; conditions: 24 h
[1] = tested on: HC-CSC (human colon cancer stem cells); assay: MTT cytotoxicity, 2D HC-CSC; type: cell-based; conditions: 24 h
3D Caco-2/BBe cells = assay: Cytotoxicity in 3D cultured Caco-2/BBe cells; type: cell-based, human
Caco-2/BBe cells = assay: Cancer-related protein expression, Human XL oncology array; type: cell-based; conditions: Caco-2/BBe lysates, 24 h; free M13 5 μg/mL, M13-NL 10 μg/mL (5 μg/mL M13)
[2] = tested on: intestinal microbiota of AOM/DSS-induced CAC mice; assay: Intestinal microbiota analysis in AOM/DSS-induced CAC mice; type: in vivo, mouse; conditions: feces day 60
D1 dopamine = D1 dopamine (Homo sapiens, UniProt P21728); conditions: M13 20 μM, 100 = no effect
[3] = tested on: Salmonella typhimurium TA98; assay: Ames test, strain TA98; conditions: +S9 or -S9
AHR-activation = target: T2, AHR-activation (Homo sapiens, UniProt P35869); assay: InVEST fluorescence polarization binding/cell-based activity, AHR-activation; conditions: M13 20 μM, 100 = no effect
T2 sequence (P35869 11-848): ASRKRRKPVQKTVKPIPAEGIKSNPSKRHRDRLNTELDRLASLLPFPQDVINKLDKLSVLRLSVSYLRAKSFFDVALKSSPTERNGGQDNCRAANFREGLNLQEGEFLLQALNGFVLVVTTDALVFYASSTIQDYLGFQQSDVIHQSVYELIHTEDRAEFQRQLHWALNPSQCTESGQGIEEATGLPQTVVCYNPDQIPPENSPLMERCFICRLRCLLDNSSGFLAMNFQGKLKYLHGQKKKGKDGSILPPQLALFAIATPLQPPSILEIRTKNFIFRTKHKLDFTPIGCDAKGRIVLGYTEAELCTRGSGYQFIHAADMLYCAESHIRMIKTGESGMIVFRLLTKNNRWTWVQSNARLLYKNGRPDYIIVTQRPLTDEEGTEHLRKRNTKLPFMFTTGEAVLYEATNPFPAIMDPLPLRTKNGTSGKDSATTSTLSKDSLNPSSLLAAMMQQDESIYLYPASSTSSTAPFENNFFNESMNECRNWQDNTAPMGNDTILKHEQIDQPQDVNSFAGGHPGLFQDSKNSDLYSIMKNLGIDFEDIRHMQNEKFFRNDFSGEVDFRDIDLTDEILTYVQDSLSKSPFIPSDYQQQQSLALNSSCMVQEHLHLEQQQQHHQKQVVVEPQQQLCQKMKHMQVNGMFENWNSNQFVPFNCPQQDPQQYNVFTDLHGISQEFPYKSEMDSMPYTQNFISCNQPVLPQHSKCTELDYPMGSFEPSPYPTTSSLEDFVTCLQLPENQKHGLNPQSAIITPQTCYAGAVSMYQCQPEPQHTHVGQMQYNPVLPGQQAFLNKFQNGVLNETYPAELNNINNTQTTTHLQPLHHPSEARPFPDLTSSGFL

Sequence of PDE4A (P27815 whole entry): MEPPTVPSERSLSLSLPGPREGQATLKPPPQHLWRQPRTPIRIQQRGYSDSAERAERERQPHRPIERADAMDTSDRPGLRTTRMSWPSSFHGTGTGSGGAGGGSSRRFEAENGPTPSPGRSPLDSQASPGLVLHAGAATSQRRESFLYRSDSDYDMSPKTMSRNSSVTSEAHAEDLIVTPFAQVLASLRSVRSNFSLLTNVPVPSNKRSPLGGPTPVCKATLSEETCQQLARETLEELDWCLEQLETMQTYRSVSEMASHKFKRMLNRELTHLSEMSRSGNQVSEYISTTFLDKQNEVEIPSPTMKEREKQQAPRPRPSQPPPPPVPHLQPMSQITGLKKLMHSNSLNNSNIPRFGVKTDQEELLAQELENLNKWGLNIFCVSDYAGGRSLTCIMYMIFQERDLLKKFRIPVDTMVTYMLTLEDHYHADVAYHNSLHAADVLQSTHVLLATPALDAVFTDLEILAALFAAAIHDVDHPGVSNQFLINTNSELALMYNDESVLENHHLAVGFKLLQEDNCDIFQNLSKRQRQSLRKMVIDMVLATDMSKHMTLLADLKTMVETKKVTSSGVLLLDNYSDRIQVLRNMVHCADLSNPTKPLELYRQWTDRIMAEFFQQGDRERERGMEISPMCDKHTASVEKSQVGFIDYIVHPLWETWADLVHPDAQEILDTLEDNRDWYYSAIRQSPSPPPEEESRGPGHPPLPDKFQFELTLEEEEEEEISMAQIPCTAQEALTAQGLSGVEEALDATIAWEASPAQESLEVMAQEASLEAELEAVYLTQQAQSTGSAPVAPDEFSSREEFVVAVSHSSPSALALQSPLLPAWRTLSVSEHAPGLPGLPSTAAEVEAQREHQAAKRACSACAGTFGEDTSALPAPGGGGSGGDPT
Sequence of Opioid kappa (P41145 whole entry): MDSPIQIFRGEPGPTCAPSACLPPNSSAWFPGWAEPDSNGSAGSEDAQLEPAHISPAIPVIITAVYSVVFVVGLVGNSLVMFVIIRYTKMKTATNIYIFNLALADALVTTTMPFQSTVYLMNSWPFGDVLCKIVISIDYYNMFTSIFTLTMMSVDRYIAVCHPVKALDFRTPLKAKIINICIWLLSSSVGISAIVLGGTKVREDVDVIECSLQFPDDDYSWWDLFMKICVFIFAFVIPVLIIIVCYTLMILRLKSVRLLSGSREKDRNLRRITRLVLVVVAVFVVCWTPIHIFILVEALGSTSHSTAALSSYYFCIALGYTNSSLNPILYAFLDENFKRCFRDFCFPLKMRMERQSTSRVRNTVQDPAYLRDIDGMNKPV
Sequence of D1 dopamine (P21728 whole entry): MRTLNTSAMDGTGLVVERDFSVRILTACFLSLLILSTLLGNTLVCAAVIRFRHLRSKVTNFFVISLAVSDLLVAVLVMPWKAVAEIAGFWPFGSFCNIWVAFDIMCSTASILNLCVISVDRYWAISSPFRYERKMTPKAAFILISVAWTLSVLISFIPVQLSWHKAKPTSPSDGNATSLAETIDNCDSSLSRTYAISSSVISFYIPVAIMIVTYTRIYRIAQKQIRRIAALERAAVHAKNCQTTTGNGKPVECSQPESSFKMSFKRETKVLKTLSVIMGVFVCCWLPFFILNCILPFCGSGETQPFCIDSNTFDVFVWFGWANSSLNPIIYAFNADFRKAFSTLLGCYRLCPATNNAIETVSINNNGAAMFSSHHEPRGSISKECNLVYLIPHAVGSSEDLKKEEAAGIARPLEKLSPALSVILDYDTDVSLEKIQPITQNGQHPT
Sequence of beta1 adrenergic (P08588 whole entry): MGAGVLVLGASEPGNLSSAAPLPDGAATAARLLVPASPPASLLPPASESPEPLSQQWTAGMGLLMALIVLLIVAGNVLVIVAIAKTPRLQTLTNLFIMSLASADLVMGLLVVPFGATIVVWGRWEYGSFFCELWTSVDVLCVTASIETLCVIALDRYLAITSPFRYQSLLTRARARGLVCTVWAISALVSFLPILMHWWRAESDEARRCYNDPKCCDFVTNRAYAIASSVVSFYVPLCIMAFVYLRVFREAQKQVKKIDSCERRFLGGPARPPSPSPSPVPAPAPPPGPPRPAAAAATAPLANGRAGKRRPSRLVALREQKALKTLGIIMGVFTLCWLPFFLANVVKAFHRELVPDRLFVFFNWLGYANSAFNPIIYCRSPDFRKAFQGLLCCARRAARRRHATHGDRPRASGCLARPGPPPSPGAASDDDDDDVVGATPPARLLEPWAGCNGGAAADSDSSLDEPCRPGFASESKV
Sequence of 5-HT2B (P41595 whole entry): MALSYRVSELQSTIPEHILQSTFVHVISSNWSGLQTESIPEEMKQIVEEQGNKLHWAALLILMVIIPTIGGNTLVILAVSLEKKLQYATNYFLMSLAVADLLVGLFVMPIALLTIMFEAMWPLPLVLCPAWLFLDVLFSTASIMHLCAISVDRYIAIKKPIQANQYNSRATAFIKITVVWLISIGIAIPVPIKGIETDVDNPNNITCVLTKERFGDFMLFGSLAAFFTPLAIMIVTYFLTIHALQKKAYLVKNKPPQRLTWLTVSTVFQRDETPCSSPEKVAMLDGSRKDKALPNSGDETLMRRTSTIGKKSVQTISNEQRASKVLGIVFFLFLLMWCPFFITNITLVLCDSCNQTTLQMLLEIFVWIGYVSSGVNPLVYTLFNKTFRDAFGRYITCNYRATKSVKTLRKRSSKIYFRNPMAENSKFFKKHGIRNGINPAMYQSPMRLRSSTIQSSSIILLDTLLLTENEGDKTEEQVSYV
Sequence of D2S dopamine (P14416 1-414 isoform P14416-2): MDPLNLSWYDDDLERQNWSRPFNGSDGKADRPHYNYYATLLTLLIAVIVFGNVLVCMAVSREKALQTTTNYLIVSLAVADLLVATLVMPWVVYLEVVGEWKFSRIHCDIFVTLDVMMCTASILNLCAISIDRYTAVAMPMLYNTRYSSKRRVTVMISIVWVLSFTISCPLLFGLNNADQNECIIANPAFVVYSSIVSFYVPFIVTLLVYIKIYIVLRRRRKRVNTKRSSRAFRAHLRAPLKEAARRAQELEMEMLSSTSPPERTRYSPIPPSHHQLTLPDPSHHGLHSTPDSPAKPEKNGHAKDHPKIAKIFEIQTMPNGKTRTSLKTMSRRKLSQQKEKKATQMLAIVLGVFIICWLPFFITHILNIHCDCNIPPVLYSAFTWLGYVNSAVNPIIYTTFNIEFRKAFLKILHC
Sequence of A1 adenosine (P30542 whole entry): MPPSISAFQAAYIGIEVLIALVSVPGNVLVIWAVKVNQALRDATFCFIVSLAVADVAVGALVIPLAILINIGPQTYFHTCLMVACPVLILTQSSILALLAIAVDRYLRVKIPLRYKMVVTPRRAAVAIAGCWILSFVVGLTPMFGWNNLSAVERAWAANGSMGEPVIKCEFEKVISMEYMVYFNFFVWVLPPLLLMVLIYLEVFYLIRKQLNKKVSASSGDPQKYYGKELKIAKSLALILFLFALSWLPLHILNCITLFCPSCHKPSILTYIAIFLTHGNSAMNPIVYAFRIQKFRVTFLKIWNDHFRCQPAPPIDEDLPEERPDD
Sequence of PDE3A (Q14432 whole entry): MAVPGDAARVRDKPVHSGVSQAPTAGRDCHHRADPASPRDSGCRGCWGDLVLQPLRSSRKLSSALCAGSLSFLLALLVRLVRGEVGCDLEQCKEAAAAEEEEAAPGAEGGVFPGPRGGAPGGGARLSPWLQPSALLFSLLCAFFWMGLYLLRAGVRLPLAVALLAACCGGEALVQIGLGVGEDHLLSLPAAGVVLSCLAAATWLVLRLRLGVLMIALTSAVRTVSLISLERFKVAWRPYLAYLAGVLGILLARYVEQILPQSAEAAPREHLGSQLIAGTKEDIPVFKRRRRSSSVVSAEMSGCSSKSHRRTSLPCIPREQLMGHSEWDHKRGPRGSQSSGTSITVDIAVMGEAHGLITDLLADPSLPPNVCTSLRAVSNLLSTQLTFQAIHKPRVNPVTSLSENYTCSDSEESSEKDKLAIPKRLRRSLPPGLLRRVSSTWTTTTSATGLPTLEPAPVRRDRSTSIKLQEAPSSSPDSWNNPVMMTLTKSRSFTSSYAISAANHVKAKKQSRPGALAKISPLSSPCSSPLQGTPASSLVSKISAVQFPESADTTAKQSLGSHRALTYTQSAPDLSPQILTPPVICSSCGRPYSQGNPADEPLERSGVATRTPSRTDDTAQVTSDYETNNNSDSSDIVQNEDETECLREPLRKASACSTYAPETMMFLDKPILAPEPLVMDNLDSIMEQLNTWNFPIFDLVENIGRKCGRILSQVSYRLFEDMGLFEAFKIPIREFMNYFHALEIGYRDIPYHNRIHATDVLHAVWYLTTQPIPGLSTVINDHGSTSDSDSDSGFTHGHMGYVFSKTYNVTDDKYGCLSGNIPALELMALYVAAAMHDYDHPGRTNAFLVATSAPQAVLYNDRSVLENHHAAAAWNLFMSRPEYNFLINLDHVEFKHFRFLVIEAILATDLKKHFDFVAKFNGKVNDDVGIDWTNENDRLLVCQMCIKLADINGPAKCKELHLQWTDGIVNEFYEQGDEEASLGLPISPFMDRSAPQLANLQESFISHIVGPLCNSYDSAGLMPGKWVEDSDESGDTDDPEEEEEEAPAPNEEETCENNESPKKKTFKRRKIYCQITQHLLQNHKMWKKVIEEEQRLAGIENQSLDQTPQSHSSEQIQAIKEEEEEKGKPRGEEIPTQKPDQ

CCCCCC(CC(=O)CCc1ccc(O)c(OC)c1)SC[C@H](NC(=O)CC[C@H](N)C(=O)O)C(=O)NCC(=O)O (stereo partly shown) [M13, 5-glutathione-6-shogaol]
% Activity Data 1 (A1 adenosine; repetition 1): 85%
% Activity Data 2 (A1 adenosine; repetition 2): 87%
% Activity Data 1 (alpha2A adrenergic; repetition 1): 92%
% Activity Data 2 (alpha2A adrenergic; repetition 2): 100%
% Activity Data 1 (beta1 adrenergic; repetition 1): 120%
% Activity Data 2 (beta1 adrenergic; repetition 2): 116%
% Activity Data 1 (D2S dopamine; repetition 1): 106%
% Activity Data 2 (D2S dopamine; repetition 2): 89%
% Activity Data 1 (Opioid kappa; repetition 1): 95%
% Activity Data 2 (Opioid kappa; repetition 2): 93%
% Activity Data 1 (5-HT2B; repetition 1): 109%
% Activity Data 2 (5-HT2B; repetition 2): 113%
% Activity Data 1 (PDE3A; repetition 1): 93%
% Activity Data 2 (PDE3A; repetition 2): 94%
% Activity Data 1 (PDE4A; repetition 1): 93%
% Activity Data 2 (PDE4A; repetition 2): 94%
pathological sign in the anatomical organs (CD-1 mice; single oral dose 1000 mg/kg, day 7): no pathological sign
body weight change, spleen-to-body weight ratio, blood physiological and biochemical indexes (CD-1 mice; single oral dose 1000 mg/kg, day 7, vs PBS control): no significant difference
death during the experiment (CD-1 mice; single oral dose 1000 mg/kg, female CD-1 mice, 7 days): did not observe any death
maximum tolerated dose (CD-1 mice; single oral dose, mice): > 1000 mg/kg
IC50 (HCT-116 cells; HCT-116, MTT): 40.1 µM
fold by which IC50 against HIEC-6 is higher than against HCT-116 (HCT-116 cells; MTT): 2.5 fold
fold by which IC50 against HIEC-6 is higher than against HC-CSC [1]: 5.8 fold
IC50 ([1]; HC-CSC): 17.4 µM
sizes of 3D cell spheres (3D Caco-2/BBe cells; 11 days culture, regardless of the group): did not change significantly
green fluorescence intensity of 3D cell spheres (live cells) vs NC group (3D Caco-2/BBe cells; M13 ≥ 80 μM, day 11, p < 0.05): significantly lower
BCL-x expression vs. Control and statistical significance (Caco-2/BBe cells): Down-regulation, ^*
CCL20/MIP-3α expression vs. Control and statistical significance (Caco-2/BBe cells): Down-regulation, ^**
CEACAM-5 expression vs. Control and statistical significance (Caco-2/BBe cells): Down-regulation, ^*
CXCL8/IL-8 expression vs. Control and statistical significance (Caco-2/BBe cells): Down-regulation, ^*
CapG expression vs. Control and statistical significance (Caco-2/BBe cells): Down-regulation, ^*
Cathepsin B expression vs. Control and statistical significance (Caco-2/BBe cells): Down-regulation, ^*
Cathepsin D expression vs. Control and statistical significance (Caco-2/BBe cells): Down-regulation, ^*
Cathepsin S expression vs. Control and statistical significance (Caco-2/BBe cells): Down-regulation, ^**
Dkk-1 expression vs. Control and statistical significance (Caco-2/BBe cells): Down-regulation, ^**
EGFR expression vs. Control and statistical significance (Caco-2/BBe cells): Down-regulation, ^*
Enolase 2 expression vs. Control and statistical significance (Caco-2/BBe cells): Down-regulation, ^*
ErbB2/Her2 expression vs. Control and statistical significance (Caco-2/BBe cells): Down-regulation, ^**
ErbB3/Her3 expression vs. Control and statistical significance (Caco-2/BBe cells): Down-regulation, ^***
Galectin-3 expression vs. Control and statistical significance (Caco-2/BBe cells): Down-regulation, *
HNF-3β expression vs. Control and statistical significance (Caco-2/BBe cells): Down-regulation, ^**
HO-1/HMOX1 expression vs. Control and statistical significance (Caco-2/BBe cells): Down-regulation, ^***
P27/Kip1 expression vs. Control and statistical significance (Caco-2/BBe cells): Down-regulation, ^**
PDGF-AA expression vs. Control and statistical significance (Caco-2/BBe cells): Down-regulation, ^*
Progranulin expression vs. Control and statistical significance (Caco-2/BBe cells): Down-regulation, ^*
Prostasin/Prss8 expression vs. Control and statistical significance (Caco-2/BBe cells): Down-regulation, ^*
Survivin expression vs. Control and statistical significance (Caco-2/BBe cells): Down-regulation, ^***
TROP1/EpCAM expression vs. Control and statistical significance (Caco-2/BBe cells): Down-regulation, ^***
unique species (Venn diagram vs WT and AOM/DSS groups) [2]: three
% Activity Data 1 (D1 dopamine; repetition 1): 100%
% Activity Data 2 (D1 dopamine; repetition 2): 116%
number of revertant colonies ([3]; TA98, 156 ~ 5000 μg/plate): did not increase
mutation factor ([3]; TA98, all concentrations 156 ~ 5000 μg/plate): less than 1.6
% Activity Data 1 (AHR-activation; repetition 1): 100%
% Activity Data 2 (AHR-activation; repetition 2): 101%
